Legend:
Trypanosoma cruzi [1] = test: Antitrypanosomal activity against Trypanosoma cruzi amastigotes; type: functional, organism-based
Leishmania infantum [2] = test: Antileishmanial activity against Leishmania infantum MHOM/BR/1972/LD promastigotes; type: functional, organism-based
Leishmania donovani [3] = test: Antileishmanial activity against Leishmania donovani amastigotes; type: functional, organism-based
[4] = molecular target: T1, Dihydroorotate dehydrogenase (fumarate) (Leishmania major, UniProt Q4QEW7); test: Inhibition of recombinant oligo-histidine-tagged Leishmania major DHODH expressed in Escherichia coli BL21(DE3) cells using DHO as substrate measured after 60 secs; details: read-out: IC50
T1 sequence (Q4QEW7 whole entry): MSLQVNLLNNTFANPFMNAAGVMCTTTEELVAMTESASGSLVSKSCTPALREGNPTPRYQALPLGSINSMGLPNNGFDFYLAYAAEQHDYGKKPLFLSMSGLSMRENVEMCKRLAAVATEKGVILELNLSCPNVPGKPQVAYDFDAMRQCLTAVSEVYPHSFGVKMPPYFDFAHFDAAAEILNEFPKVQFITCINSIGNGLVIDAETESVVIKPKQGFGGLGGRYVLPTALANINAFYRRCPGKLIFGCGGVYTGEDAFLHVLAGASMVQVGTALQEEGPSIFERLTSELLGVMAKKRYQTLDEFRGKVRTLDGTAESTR

[5] = test system: Trypanosoma brucei rhodesiense; test: Antitrypanosomal activity against Trypanosoma brucei rhodesiense STIB900 trypomastigotes; type: functional, organism-based
Leishmania amazonensis [6] = test: Antileishmanial activity against Leishmania amazonensis MHOM/BR/77/LTB 0016 promastigotes after 72 hrs by MTT assay; type: functional, organism-based; details: MHOM/BR/77/LTB 0016, 72 h
Leishmania amazonensis [7] = test: Antileishmanial activity against Leishmania amazonensis MHOM/BR/77/LTB 0016 amastigotes infected in mouse peritoneal macrophages after 72 hrs by staining-based assay; type: functional, organism-based; details: MHOM/BR/77/LTB 0016, 72 h
Trypanosoma brucei = test: Antitrypanosomal activity against Trypanosoma brucei TC221 trypomastigotes after 24 hrs by Alamar Blue assay; type: functional, organism-based; details: TC221, 24 h
Trypanosoma cruzi [8] = test: Antitrypanosomal activity against Trypanosoma cruzi Tulahuen C2C4 trypomastigotes infected in rat skeletal myoblasts L-6 cells after 96 hrs by CPRG/Nonidet reagent based spectrophotometric method; type: functional, organism-based; details: Tulahuen C2C4, L6, 96 h
[9] = test system: Trypanosoma brucei rhodesiense; test: Antitrypanosomal activity against Trypanosoma brucei rhodesiense STIB900 trypomastigotes after 72 hrs by Alamar Blue assay; type: functional, organism-based; details: STIB 900, 72 h
Leishmania donovani [10] = test: Antileishmanial activity against Leishmania donovani MHOM/ET/67/L82 amastigotes after 72 hrs by Alamar Blue assay; type: functional, organism-based; details: MHOM/ET/67/L82, 72 h
[11] = molecular target: T2, Dihydroorotate dehydrogenase (fumarate) (Leishmania major) (UniProt Q4QEW7); test: Binding affinity to Leishmania major DHODH assessed as change in melting temperature at 1000 uM by SYPRO orange dye-based differential scanning fluorimetry
T2 sequence (whole entry): T1 sequence (Q4QEW7 whole entry)

[12] = molecular target: T2, Dihydroorotate dehydrogenase (fumarate) (Leishmania major); test: Binding affinity to Leishmania major DHODH assessed as change in melting temperature at 100 uM by differential scanning fluorimetry-based ThermoFMN assay
[13] = molecular target: T2, Dihydroorotate dehydrogenase (fumarate) (Leishmania major); test: Binding affinity to Leishmania major DHODH assessed as change in melting temperature at 500 uM by differential scanning fluorimetry-based ThermoFMN assay
Leishmania amazonensis [14] = test: Antileishmanial activity against Leishmania amazonensis promastigotes; type: functional, organism-based
[15] = molecular target: Dihydroorotate dehydrogenase (quinone), mitochondrial (Homo sapiens) (UniProt Q02127); test: Inhibition of human DHODH at 100 uM
Leishmania braziliensis [16] = test: Antileishmanial activity against Leishmania braziliensis promastigotes; type: functional, organism-based
[17] = molecular target: T2, Dihydroorotate dehydrogenase (fumarate) (Leishmania major); test: Binding affinity to Leishmania major DHODH assessed as change in melting temperature at 500 uM by SYPRO orange dye-based differential scanning fluorimetry
[18] = molecular target: T2, Dihydroorotate dehydrogenase (fumarate) (Leishmania major); test: Binding affinity to Leishmania major DHODH assessed as change in melting temperature at 100 uM by SYPRO orange dye-based differential scanning fluorimetry
[19] = molecular target: T2, Dihydroorotate dehydrogenase (fumarate) (Leishmania major); test: Binding affinity to Leishmania major DHODH assessed as change in melting temperature at 1000 uM by differential scanning fluorimetry-based ThermoFMN assay
[20] = molecular target: T2, Dihydroorotate dehydrogenase (fumarate) (Leishmania major); test: Inhibition of recombinant oligo-histidine-tagged Leishmania major DHODH expressed in Escherichia coli BL21(DE3) cells at 100 uM using DHO as substrate measured after 60 secs
[21] = molecular target: T2, Dihydroorotate dehydrogenase (fumarate) (Leishmania major); test: Inhibition of recombinant oligo-histidine-tagged Leishmania major DHODH expressed in Escherichia coli BL21(DE3) cells at 150 uM using DHO as substrate measured after 60 secs
Trypanosoma cruzi [22] = test: Antitrypanosomal activity against Trypanosoma cruzi Y amastigotes after 24 hrs by Gential violet staining-based assay; type: functional, organism-based
Trypanosoma cruzi [23] = test: Antitrypanosomal activity against Trypanosoma cruzi Tulahuen trypomastigotes after 96 hrs by CPRG/Nonidet reagent based spectrophotometric method; type: functional, organism-based
[24] = test system: Trypanosoma brucei rhodesiense; test: Antitrypanosomal activity against Trypanosoma brucei rhodesiense STIB 900 trypomastigotes after 72 hrs by resazurin dye-based fluorescence assay; type: functional, organism-based; details: STIB 900, 72 h
Leishmania donovani [25] = test: Antileishmanial activity against Leishmania donovani MHOM/ET/67/L82 axenic amastigotes after 72 hrs by resazurin dye-based fluorescence assay; type: functional, organism-based; details: MHOM/ET/67/L82, 72 h
Trypanosoma cruzi [26] = test: Antitrypanosomal activity against Trypanosoma cruzi Y amastigotes infected in Swiss albino mouse measured on day 7 post infection by Gential violet staining-based assay; type: functional, organism-based; details: 168 h
Leishmania major [27] = test: Antileishmanial activity against Leishmania major promastigotes; type: functional, organism-based
Leishmania major [28] = test: Antileishmanial activity against Leishmania major amastigotes; type: functional, organism-based
[29] = test system: Trypanosoma brucei rhodesiense; test: Antitrypanosomal activity against Trypanosoma brucei rhodesiense STIB 900 trypomastigotes after 72 hrs by Alamar Blue assay; type: functional, organism-based; details: STIB 900, 72 h
Leishmania amazonensis [30] = test: Antileishmanial activity against Leishmania amazonensis IFLA/BR/1967/PH-8 promastigotes after 48 hrs by MTT assay; type: functional, organism-based; details: IFLA/BR/1967/PH-8, 48 h
Leishmania donovani [31] = test: Antileishmanial activity against Leishmania donovani; type: functional, organism-based
Leishmania braziliensis [32] = test: Antileishmanial activity against Leishmania braziliensis; type: functional, organism-based
Leishmania amazonensis [33] = test: Antileishmanial activity against Leishmania amazonensis; type: functional, organism-based
Trypanosoma congolense = test: Antitrypanosomal activity against Trypanosoma congolense STIB 910 trypomastigotes after 24 hrs by Alamar Blue assay; type: functional, organism-based; details: STIB 910, 24 h
Leishmania infantum [34] = test: Antileishmanial activity against Leishmania infantum MHOM/MA(BE)/6 promastigotes infected in mouse J774A.1 cells after 120 hrs by Giemsa staining-based assay; type: functional, organism-based; details: MHOM/MA(BE)/6, J774.A1, 120 h
Leishmania infantum [35] = test: Antileishmanial activity against Leishmania infantum MHOM/MA(BE)/6 amastigotes infected in mouse J774A.1 cells after 120 hrs by Giemsa staining-based assay; type: functional, organism-based; details: MHOM/MA(BE)/6, J774.A1, 120 h
Trypanosoma cruzi [36] = test: Antitrypanosomal activity against Trypanosoma cruzi trypomastigotes; type: functional, organism-based

Chain of Dihydroorotate dehydrogenase (quinone), mitochondrial (Homo sapiens) (Q02127 whole entry): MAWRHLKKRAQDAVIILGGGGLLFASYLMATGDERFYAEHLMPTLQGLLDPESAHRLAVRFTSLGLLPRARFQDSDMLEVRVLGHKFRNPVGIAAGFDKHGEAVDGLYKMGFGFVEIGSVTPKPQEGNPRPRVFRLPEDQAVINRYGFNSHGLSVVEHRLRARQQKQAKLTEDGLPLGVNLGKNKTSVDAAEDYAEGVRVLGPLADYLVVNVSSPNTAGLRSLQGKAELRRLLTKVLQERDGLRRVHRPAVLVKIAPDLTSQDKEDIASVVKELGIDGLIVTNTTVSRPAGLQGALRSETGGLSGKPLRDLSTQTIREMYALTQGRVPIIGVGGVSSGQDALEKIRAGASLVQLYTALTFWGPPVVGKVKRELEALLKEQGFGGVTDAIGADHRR

Compound: C=C1C(=O)O[C@@H]2/C=C(/CO)C3=CC(=O)[C@@](C)(C[C@@H](OC(=O)/C(C)=C\C)[C@@H]12)O3
- IC50 (Trypanosoma cruzi [1]): 1.75 µM
- IC50 (Leishmania infantum [2]): 28 µM
- IC50 (Leishmania donovani [3]): 5.14 µM
- IC50 [4]: 653 µM
- IC50 [5]: 0.07 µM

Compound: CN1[C@@H]2C[C@H](OC(=O)[C@H](CO)c3ccccc3)C[C@H]1[C@@H]1O[C@@H]12
- IC50 (Leishmania amazonensis [6]): > 100 µM
- IC50 (Leishmania amazonensis [7]): > 25 µM
- IC50 [4]: 795 µM
- IC50 (Trypanosoma brucei): > 100 µM

Compound: CC[C@H](CC[C@H](C)[C@H]1CC[C@H]2[C@@H]3CC=C4C[C@@H](O)CC[C@]4(C)[C@H]3CC[C@]12C)C(C)C
- IC50 (Trypanosoma cruzi [8]): 35.4 µM
- IC50 [9]: 86.1 µM
- IC50 (Leishmania donovani [10]): 27.8 µM
- IC50 [4]: 414 µM

Compound: CC(=O)OCC1=C2[C@@H](OC(C)=O)C[C@@](C)(OC(C)=O)C(=O)CC[C@@]3(C)O[C@@H]3[C@H]2OC1=O
- ΔTm [11]: -0.64 °C
- ΔTm [12]: -0.21 °C
- ΔTm [13]: -0.41 °C
- IC50 (Leishmania amazonensis [14]): 46.1 µM
- inhibition [15]: 0%
- IC50 [4]: 30.9 µM
- IC50 (Leishmania braziliensis [16]): 27.9 µM
- ΔTm [17]: -0.47 °C
- ΔTm [18]: -0.27 °C
- ΔTm [19]: -0.7 °C
- inhibition [20]: 41%

Compound: C=C1C(=O)O[C@@H]2[C@H]3C(C)=CC(=O)C3=C(C)C[C@@H](OC(=O)/C(C)=C/C)[C@@H]12
- inhibition [15]: 3%
- IC50 [4]: 26.8 µM
- inhibition [21]: 64%

Compound: C=C[C@]1(C)C=C2CC[C@H]3[C@@](C)(CCC[C@]3(C)C(=O)O)[C@@H]2CC1
- IC50 (Trypanosoma cruzi [22]): 386 µM
- IC50 [4]: 1320 µM

Compound: C=C1C(=O)O[C@@H]2/C=C(\CO)CC/C=C(\C)C[C@H](OC(=O)C(=C)[C@@H](O)CO)[C@@H]12
- IC50 (Trypanosoma cruzi [23]): 16.8 µM
- IC50 [24]: 1.3 µM
- IC50 [4]: 361 µM
- IC50 (Leishmania donovani [25]): 15.2 µM

Compound: COc1cc(O)c2c(=O)cc(-c3ccc(OC)c(OC)c3)oc2c1
- IC50 [4]: 217 µM
- IC50 (Trypanosoma cruzi [26]): 217 µM

Compound: C[C@@H]1CC[C@H]2[C@@H](C)C(=O)O[C@@H]3O[C@@]4(C)CC[C@@H]1[C@]32OO4 [ARTEMISININ]
- ΔTm [11]: -0.52 °C
- ΔTm [12]: -0.13 °C
- ΔTm [13]: -0.35 °C
- IC50 (Leishmania major [27]): 0.75 µM
- IC50 (Leishmania major [28]): 0.3 µM
- inhibition [15]: 0%
- IC50 [4]: 172 µM
- ΔTm [17]: -0.22 °C
- ΔTm [18]: -0.14 °C
- ΔTm [19]: -0.4 °C
- inhibition [20]: 44%

Compound: Oc1cc(O)c2c(c1)O[C@H](c1ccc(O)c(O)c1)[C@@H](O)C2 [CIANIDANOL]
- IC50 (Trypanosoma cruzi [8]): 310 µM
- IC50 [29]: 50 µM
- inhibition [15]: 38%
- IC50 (Leishmania donovani [10]): 103 µM
- IC50 [4]: 98.3 µM
- IC50 (Leishmania amazonensis [30]): 153 µM
- inhibition [20]: 52%

Compound: O=c1ccc2ccccc2o1 [COUMARIN]
- IC50 (Leishmania donovani [31]): 342 µM
- IC50 (Leishmania braziliensis [32]): 342 µM
- IC50 [4]: 642 µM
- IC50 (Leishmania amazonensis [33]): 342 µM

Compound: CC[C@H]1CN2CCc3cc(OC)c(OC)cc3[C@@H]2C[C@@H]1C[C@H]1NCCc2cc(OC)c(OC)cc21 [EMETINE]
- IC50 (Trypanosoma congolense): 0.43 µM
- IC50 [4]: 1070 µM
- IC50 (Trypanosoma brucei): 0.04 µM

Compound: C/C=C(/C)C(=O)O[C@H]1[C@H](OC(C)=O)[C@]2(CO)[C@H](O)C[C@]3(C)C(=CC[C@@H]4[C@@]5(C)CC[C@H](O[C@@H]6O[C@H](C(=O)O)[C@@H](O[C@@H]7O[C@H](CO)[C@@H](O)[C@H](O)[C@H]7O)[C@H](O)[C@H]6O[C@@H]6O[C@H](CO)[C@@H](O)[C@H](O)[C@H]6O)[C@](C)(CO)[C@@H]5CC[C@]43C)[C@@H]2CC1(C)C [ESCIN IB]
- IC50 (Leishmania infantum [34]): > 14.1 µM
- IC50 [4]: 478 µM
- IC50 (Leishmania infantum [35]): 1.37 µM

Compound: C=C(C)C(=O)O[C@H]1C[C@@]2(C)OC(=CC2=O)/C(CO)=C\[C@H]2OC(=O)C(=C)[C@H]12 [GOIAZENSOLIDE]
- ΔTm [11]: -6.51 °C
- ΔTm [12]: -0.32 °C
- ΔTm [13]: -0.84 °C
- IC50 (Trypanosoma cruzi [36]): 1.08 µM
- IC50 (Leishmania donovani [3]): 0.45 µM
- IC50 [4]: 156 µM
- IC50 [5]: 0.07 µM
- ΔTm [17]: -4.19 °C
- ΔTm [18]: -0.73 °C
- ΔTm [19]: -1.13 °C

From ChEMBL document CHEMBL4261582, “Natural products as inhibitors of Leishmania major dihydroorotate dehydrogenase” (Eur J Med Chem, 2018)
